The numbers were not newly measured in PubChem BioAssay AID1259409 (Chemical Carcinogenesis Research Information System (CCRIS), 2018), which cites them from elsewhere.

Molecules are shown by their SMILES.

This series has as its system rodent chemically induced tumor inhibition, incidence and multiplicity. Nature of the series: CCRIS tumor inhibitor studies.

Turning to `NC(=O)c1cccnc1`, the “tumour outcome (control, treated, inhibition, significance)” value is, setting by setting: (Carcinogen: N-NITROSOBIS(2-OXOPROPYL)AMINE, 60599-38-4, Dose [Inhibitor]: 0, 0.2% IN DRINKING WATER FOR 49 WK POST CARCINOGEN TREATMENT (STUDY DURATION: 52 WK), Route [Inhibitor]: ORAL, Species: HAMSTER, Strain/Sex: SYRIAN GOLDEN/FEMALE, Target Tissue: Type of Lesion: TRACHEA: PAPILLOMA, Dose [Carcinogen]: 10 MG/KG BW 1/WK FOR FIRST 3 WK OF STUDY DURATION, Promoter: NONE) 1/30 (3%), 0/29 (0%), 100%, not significant; (Carcinogen: N-NITROSOBIS(2-OXOPROPYL)AMINE, 60599-38-4, Dose [Inhibitor]: 0, 0.5% IN DRINKING WATER FOR 49 WK BEGINNING POST CARCINOGEN TREATMENT (STUDY DURATION: 52 WK), Route [Inhibitor]: ORAL, Species: HAMSTER, Strain/Sex: SYRIAN/FEMALE, Target Tissue: Type of Lesion: PANCREAS: ADENOCARCINOMA, Dose [Carcinogen]: 10 MG/KG 1/WK FOR 3 WK, Promoter: NONE) 18/30 (60%), 21/30 (70%), -17%, not significant; (Carcinogen: N-NITROSOBIS(2-OXOPROPYL)AMINE, 60599-38-4, Dose [Inhibitor]: 0, 0.5% IN DRINKING WATER FOR 49 WK POST CARCINOGEN TREATMENT (STUDY DURATION: 52 WK), Route [Inhibitor]: ORAL, Species: HAMSTER, Strain/Sex: SYRIAN GOLDEN/FEMALE, Target Tissue: Type of Lesion: KIDNEY: NEPHROBLASTOMA, Dose [Carcinogen]: 10 MG/KG BW 1/WK FOR FIRST 3 WK OF STUDY DURATION, Promoter: NONE) 2/30 (7%), 0/30 (0%), 100%, not significant; (Carcinogen: N-NITROSOBIS(2-OXOPROPYL)AMINE, 60599-38-4, Dose [Inhibitor]: 0, 0.5% IN DRINKING WATER FOR 49 WK POST CARCINOGEN TREATMENT (STUDY DURATION: 52 WK), Route [Inhibitor]: ORAL, Species: HAMSTER, Strain/Sex: SYRIAN GOLDEN/FEMALE, Target Tissue: Type of Lesion: KIDNEY: RENAL CELL CARCINOMA, Dose [Carcinogen]: 10 MG/KG BW 1/WK FOR FIRST 3 WK OF STUDY DURATION, Promoter: NONE) 1/30 (3%), 2/30 (7%), -133%, not significant; (Carcinogen: N-NITROSOBIS(2-OXOPROPYL)AMINE, 60599-38-4, Dose [Inhibitor]: 0, 0.5% IN DRINKING WATER FOR 49 WK POST CARCINOGEN TREATMENT (STUDY DURATION: 52 WK), Route [Inhibitor]: ORAL, Species: HAMSTER, Strain/Sex: SYRIAN GOLDEN/FEMALE, Target Tissue: Type of Lesion: LIVER: CHOLANGIOCELLULAR ADENOMA, Dose [Carcinogen]: 10 MG/KG BW 1/WK FOR FIRST 3 WK OF STUDY DURATION, Promoter: NONE) 1/30 (3%), 3/30 (10%), -233%, not significant; (Carcinogen: N-NITROSOBIS(2-OXOPROPYL)AMINE, 60599-38-4, Dose [Inhibitor]: 0, 0.5% IN DRINKING WATER FOR 49 WK POST CARCINOGEN TREATMENT (STUDY DURATION: 52 WK), Route [Inhibitor]: ORAL, Species: HAMSTER, Strain/Sex: SYRIAN GOLDEN/FEMALE, Target Tissue: Type of Lesion: LIVER: HEPATOCELLULAR ADENOMA, Dose [Carcinogen]: 10 MG/KG BW 1/WK FOR FIRST 3 WK OF STUDY DURATION, Promoter: NONE) 2/30 (7%), 4/30 (13%), -86%, not significant. The “tumour outcome (control, treated, inhibition, significance)” value is reported as 2/30 (7%), 2/30 (7%), 0%, not significant (Carcinogen: N-NITROSOBIS(2-OXOPROPYL)AMINE, 60599-38-4, Dose [Inhibitor]: 0, 0.5% IN DRINKING WATER FOR 49 WK POST CARCINOGEN TREATMENT (STUDY DURATION: 52 WK), Route [Inhibitor]: ORAL, Species: HAMSTER, Strain/Sex: SYRIAN GOLDEN/FEMALE, Target Tissue: Type of Lesion: LIVER: HEPATOCELLULAR CARCINOMA, Dose [Carcinogen]: 10 MG/KG BW 1/WK FOR FIRST 3 WK OF STUDY DURATION, Promoter: NONE); 11/30 (37%), 9/30 (30%), 19%, not significant (Carcinogen: N-NITROSOBIS(2-OXOPROPYL)AMINE, 60599-38-4, Dose [Inhibitor]: 0, 0.5% IN DRINKING WATER FOR 49 WK POST CARCINOGEN TREATMENT (STUDY DURATION: 52 WK), Route [Inhibitor]: ORAL, Species: HAMSTER, Strain/Sex: SYRIAN GOLDEN/FEMALE, Target Tissue: Type of Lesion: LUNG: ADENOCARCINOMA, Dose [Carcinogen]: 10 MG/KG BW 1/WK FOR FIRST 3 WK OF STUDY DURATION, Promoter: NONE); 15/30 (50%), 17/30 (56.7%), -13%, not significant (Carcinogen: N-NITROSOBIS(2-OXOPROPYL)AMINE, 60599-38-4, Dose [Inhibitor]: 0, 0.5% IN DRINKING WATER FOR 49 WK POST CARCINOGEN TREATMENT (STUDY DURATION: 52 WK), Route [Inhibitor]: ORAL, Species: HAMSTER, Strain/Sex: SYRIAN GOLDEN/FEMALE, Target Tissue: Type of Lesion: LUNG: ADENOMA, Dose [Carcinogen]: 10 MG/KG BW 1/WK FOR FIRST 3 WK OF STUDY DURATION, Promoter: NONE); 2/30 (7%), 2/30 (7%), 0%, not significant (Carcinogen: N-NITROSOBIS(2-OXOPROPYL)AMINE, 60599-38-4, Dose [Inhibitor]: 0, 0.5% IN DRINKING WATER FOR 49 WK POST CARCINOGEN TREATMENT (STUDY DURATION: 52 WK), Route [Inhibitor]: ORAL, Species: HAMSTER, Strain/Sex: SYRIAN GOLDEN/FEMALE, Target Tissue: Type of Lesion: LUNG: SQUAMOUS CELL CARCINOMA, Dose [Carcinogen]: 10 MG/KG BW 1/WK FOR FIRST 3 WK OF STUDY DURATION, Promoter: NONE); 18/30 (60%), 21/30 (70%), -17%, not significant (Carcinogen: N-NITROSOBIS(2-OXOPROPYL)AMINE, 60599-38-4, Dose [Inhibitor]: 0, 0.5% IN DRINKING WATER FOR 49 WK POST CARCINOGEN TREATMENT (STUDY DURATION: 52 WK), Route [Inhibitor]: ORAL, Species: HAMSTER, Strain/Sex: SYRIAN GOLDEN/FEMALE, Target Tissue: Type of Lesion: PANCREAS (DUCTAL): ADENOCARCINOMA, Dose [Carcinogen]: 10 MG/KG BW 1/WK FOR FIRST 3 WK OF STUDY DURATION, Promoter: NONE); 1/30 (3%), 0/30 (0%), 100%, not significant (Carcinogen: N-NITROSOBIS(2-OXOPROPYL)AMINE, 60599-38-4, Dose [Inhibitor]: 0, 0.5% IN DRINKING WATER FOR 49 WK POST CARCINOGEN TREATMENT (STUDY DURATION: 52 WK), Route [Inhibitor]: ORAL, Species: HAMSTER, Strain/Sex: SYRIAN GOLDEN/FEMALE, Target Tissue: Type of Lesion: THYROID: ADENOMA, Dose [Carcinogen]: 10 MG/KG BW 1/WK FOR FIRST 3 WK OF STUDY DURATION, Promoter: NONE). Moreover, the “tumour outcome (control, treated, inhibition, significance)” value is, setting by setting: (Carcinogen: N-NITROSOBIS(2-OXOPROPYL)AMINE, 60599-38-4, Dose [Inhibitor]: 0, 350 MG/KG 10 MIN PRIOR TO AND 3 HR POST CARCINOGEN DOSE (STUDY DURATION: 52 WK), Route [Inhibitor]: INTRAPERITONEAL, Species: HAMSTER, Strain/Sex: SYRIAN/MALE, FEMALE, Target Tissue: Type of Lesion: PANCREAS: DUCTAL/DUCTULAR CARCINOMA, Dose [Carcinogen]: 10 MG/KG ONCE, Promoter: NONE USED) 5/60 (8%), 0/35 (0%), 100%, p<0.0001; (Carcinogen: N-NITROSOBIS(2-OXOPROPYL)AMINE, 60599-38-4, Dose [Inhibitor]: 0, 350 MG/KG 10 MIN PRIOR TO AND 3 HR POST CARCINOGEN DOSE (STUDY DURATION: 52 WK), Route [Inhibitor]: INTRAPERITONEAL, Species: HAMSTER, Strain/Sex: SYRIAN/MALE, FEMALE, Target Tissue: Type of Lesion: PANCREAS: DUCTULAR ADENOMA, Dose [Carcinogen]: 10 MG/KG ONCE, Promoter: NONE USED) 25/60 (42%), 5/35 (14%), 67%, p=0.05; (Carcinogen: URETHANE, 51-79-6, Dose [Inhibitor]: 1.0% (1.02 MG/G BW/D) IN POWDERED DIET FOR 10 D POST CARCINOGEN DOSE (STUDY DURATION: 5 MO), Route [Inhibitor]: ORAL, Species: MOUSE, Strain/Sex: ICR/FEMALE, Target Tissue: Type of Lesion: LUNG: TUMOR, Dose [Carcinogen]: 1 MG/G ONCE, Promoter: NONE USED) 27/31 (87%), 47/51 (92%), -6%, not calculated; (Carcinogen: URETHANE, 51-79-6, Dose [Inhibitor]: 2.5% (2.83 MG/G BW/D) IN POWDERED DIET FOR 10 D POST CARCINOGEN DOSE (STUDY DURATION: 5 MO), Route [Inhibitor]: ORAL, Species: MOUSE, Strain/Sex: ICR/FEMALE, Target Tissue: Type of Lesion: LUNG: TUMOR, Dose [Carcinogen]: 1 MG/G ONCE, Promoter: NONE USED) 27/31 (87%), 47/54 (87%), 0%, not calculated. Further, the outcome by setting is: (Carcinogen: N-NITROSOBIS(2-OXOPROPYL)AMINE, 60599-38-4, Dose [Inhibitor]: 0, 0.5% IN DRINKING WATER FOR 49 WK POST CARCINOGEN TREATMENT (STUDY DURATION: 52 WK), Route [Inhibitor]: ORAL, Species: HAMSTER, Strain/Sex: SYRIAN GOLDEN/FEMALE, Target Tissue: Type of Lesion: KIDNEY: RENAL CELL ADENOMA, Dose [Carcinogen]: 10 MG/KG BW 1/WK FOR FIRST 3 WK OF STUDY DURATION, Promoter: NONE) 0/30 (0%), 2/30 (7%), -100%, not significant; (Carcinogen: N-NITROSOBIS(2-OXOPROPYL)AMINE, 60599-38-4, Dose [Inhibitor]: 0, 0.5% IN DRINKING WATER FOR 49 WK POST CARCINOGEN TREATMENT (STUDY DURATION: 52 WK), Route [Inhibitor]: ORAL, Species: HAMSTER, Strain/Sex: SYRIAN GOLDEN/FEMALE, Target Tissue: Type of Lesion: LIVER: CHOLANGIOCELLULAR CARCINOMA, Dose [Carcinogen]: 10 MG/KG BW 1/WK FOR FIRST 3 WK OF STUDY DURATION, Promoter: NONE) 0/30 (0%), 3/30 (10%), -%, not significant; (Carcinogen: N-NITROSOBIS(2-OXOPROPYL)AMINE, 60599-38-4, Dose [Inhibitor]: 0, 0.5% IN DRINKING WATER FOR 49 WK POST CARCINOGEN TREATMENT (STUDY DURATION: 52 WK), Route [Inhibitor]: ORAL, Species: HAMSTER, Strain/Sex: SYRIAN GOLDEN/FEMALE, Target Tissue: Type of Lesion: LIVER: CYSTADENOMA, Dose [Carcinogen]: 10 MG/KG BW 1/WK FOR FIRST 3 WK OF STUDY DURATION, Promoter: NONE) 0/30 (0%), 2/30 (7%), -%, not significant.
